Read-outs that look alike come from different tables or passages of the source.
Columns and labels:
Assay type in all cases: in vivo
[1] = test system: Avena fatua (AVEFA); assay: Pre-emergence herbicidal action against AVEFA; details: 320 g/ha, visual scoring after about 3 weeks vs untreated controls
Summary of the method: (§1)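 Seeds sown in pots and covered with soil; WP or EC formulations sprayed onto the soil surface at 600 l/ha water with 0.5% additive, at 320 g/ha or lower. Greenhouse growth for about 3 weeks, then visual scoring as % effect against untreated controls (100% = plants dead).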

[2] = test system: Setaria viridis (SETVI); assay: Post-emergence herbicidal action against SETVI
Summary of the method: (§2)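 Post-emergence greenhouse spray, one-leaf stage, 600 l/ha water plus 0.5% additive; WP or EC formulations; application rates 320 g/ha or lower. Visual % damage vs untreated controls at ~3 weeks.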

[3] = test system: Polygonum convolvulus (POLCO); assay: Pre-emergence herbicidal action against POLCO
Summary of the method: as §1

[4] = test system: Pharbitis purpurea (PHBPU); assay: Post-emergence herbicidal action against PHBPU
Summary of the method: as §2

[5] = test system: Alopecurus myosuroides (ALOMY); assay: Post-emergence herbicidal action against ALOMY; details: visual rating about 3 weeks after treatment vs untreated controls (100% = plants have died, 0% = like control plants)
Summary of the method: as §2

[6] = test system: Verconica persica (VERPE); assay: Pre-emergence herbicidal action against VERPE; details: dosage 320 g/ha
Summary of the method: as §1

[7] = test system: Lolium rigidum (LOLRI); assay: Pre-emergence herbicidal action against LOLRI
Summary of the method: as §1

[8] = test system: Abutilon theophrasti (ABUTH); assay: Pre-emergence herbicidal action against ABUTH; details: Dosage column 320 g/ha (title prints 3200 g/ha); scored visually after about 3 weeks; 100% = plants have died
Source text: Seeds of monocotyledonous and dicotyledonous weed plants and crop plants are placed in plastic or organic planting pots and covered with soil. The compounds of the invention, formulated in the form of wettable powders (WP) or as emulsion concentrates (EC), are then applied to the surface of the covering soil as aqueous suspension or emulsion with addition of 0.5% additive at a water application rate equivalent to 600 l/ha. After the treatment, the pots are placed in a greenhouse and kept under good growth conditions for the trial plants. After about 3 weeks, the effect of the preparations is scored visually in comparison with untreated controls as percentages. For example, 100% activity=the plants have died, 0% activity=like control plants.
Tables A1 to A13 below show the effects of selected compounds of the general formula (I) on various harmful plants and at an application rate corresponding to 320 g/ha or lower, which were obtained by the experimental procedure mentioned above. The appendices “a”, “b” and “c” give differentiation by dosage used with otherwise the same harmful plants tested.

[9] = test system: Verconica persica (VERPE); assay: Post-emergence herbicidal action against VERPE
Summary of the method: as §2

[10] = test system: Matricaria inodora (MATIN); assay: Pre-emergence herbicidal action against MATIN; details: dosage 320 g/ha
Summary of the method: as §1

[11] = test system: Polygonum convolvulus (POLCO); assay: Post-emergence herbicidal action against POLCO
Summary of the method: as §2

[12] = test system: Amaranthus retroflexus (AMARE); assay: Post-emergence herbicidal action against AMARE
Summary of the method: as §2

[13] = test system: Viola tricolor (VIOTR); assay: Pre-emergence herbicidal action against VIOTR
Summary of the method: as §1

[14] = test system: Lolium rigidum (LOLRI); assay: Post-emergence herbicidal action against LOLRI; details: dosage 320 g/ha
Summary of the method: as §2

[15] = test system: Viola tricolor (VIOTR); assay: Post-emergence herbicidal action against VIOTR
Summary of the method: as §2

[16] = test system: Alopecurus myosuroides (ALOMY); assay: Pre-emergence herbicidal action against ALOMY; details: scored visually after about 3 weeks, 100% = plants have died
Summary of the method: as §1

[17] = test system: Amaranthus retroflexus (AMARE); assay: Pre-emergence herbicidal action against AMARE; details: visual scoring after about 3 weeks vs untreated controls
Summary of the method: as §1

[18] = test system: Abutilon theophrasti (ABUTH); assay: Post-emergence herbicidal action against ABUTH; details: visual rating about 3 weeks after treatment vs untreated controls (100% = plants have died, 0% = like control plants)
Summary of the method: as §2

[19] = test system: Avena fatua (AVEFA); assay: Post-emergence herbicidal action against AVEFA; details: 320 g/ha, visual rating about 3 weeks after treatment
Summary of the method: as §2

[20] = test system: Echinochloa crus-galli (ECHCG); assay: Pre-emergence herbicidal action against ECHCG; details: dosage 320 g/ha
Summary of the method: as §1

[21] = test system: Zea mays (ZEAMX); details: crop plant compatibility, 80 g/ha, effect vs untreated controls
Summary of the method: (§3)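 Percent effect on the crop was judged by eye against untreated controls, where 0% means like control and 100% means dead plants. Plants had been sprayed post-emergence at the one-leaf stage and then kept under optimum greenhouse conditions for about 3 weeks.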

[22] = test system: Echinochloa crus-galli (ECHCG); assay: Post-emergence herbicidal action against ECHCG
Summary of the method: as §2

[23] = test system: Setaria viridis (SETVI); assay: Pre-emergence herbicidal action against SETVI
Summary of the method: as §1

[24] = test system: Digitaria sanguinalis (DIGSA); assay: Pre-emergence herbicidal action against DIGSA; details: dosage 320 g/ha
Summary of the method: as §1

[25] = test system: Oryza sativa (ORYSA); details: pre-emergence, 80 g/ha, crop plant compatibility, in comparison to untreated controls
Summary of the method: (§4)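 Crop injury rated visually in percent against untreated plants roughly 3 weeks after treatment (0% no effect, 100% plants dead). Compounds, as WP or EC with 0.5% additive in 600 l/ha water, were applied to the covering soil right after sowing; greenhouse growth. Suffixes a, b, c denote different dosages.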

[26] = test system: Zea mays (ZEAMX); details: pre-emergence, 80 g/ha, crop plant compatibility, in comparison to untreated controls
Summary of the method: as §4

[27] = test system: Digitaria sanguinalis (DIGSA); assay: Post-emergence herbicidal action against DIGSA; details: visual rating about 3 weeks after treatment
Summary of the method: as §2

[28] = test system: Pharbitis purpurea (PHBPU); assay: Pre-emergence herbicidal action against PHBPU; details: dosage 320 g/ha
Summary of the method: as §1

[29] = test system: Oryza sativa (ORYSA); details: crop plant compatibility, effect in comparison to untreated controls
Summary of the method: as §3

Compound	Pre-emergence action against AVEFA in % [1] [%]	Post-emergence action against SETVI in % ([2]; dosage 320 g/ha) [%]	Pre-emergence action against POLCO in % ([3]; dosage 320 g/ha) [%]	Post-emergence action against PHBPU in % ([4]; dosage 320 g/ha) [%]	Post-emergence action against ALOMY in % ([5]; 320 g/ha) [%]	Pre-emergence action against VERPE in % [6] [%]	Post-emergence action against VERPE in % ([9]; 320 g/ha, VERPE) [%]	Post-emergence action against POLCO in % ([11]; dosage 80 g/ha) [%]	Post-emergence action against POLCO in % ([11]; dosage 320 g/ha) [%]	Pre-emergence action against VIOTR in % ([13]; 320 g/ha, Viola tricolor) [%]	Pre-emergence action against VIOTR in % ([13]; dosage 80 g/ha) [%]	Post-emergence action against VIOTR in % ([15]; 320 g/ha) [%]	Pre-emergence action against ALOMY ([16]; 320 g/ha) [%]	Pre-emergence action against AMARE in % ([17]; 320 g/ha) [%]	Post-emergence action against ABUTH in % ([18]; 320 g/ha) [%]	Post-emergence action against AVEFA in % [19] [%]	Pre-emergence action against ECHCG in % [20] [%]	Post-emergence action against ECHCG in % ([22]; dosage 80 g/ha) [%]	Post-emergence action against ECHCG in % ([22]; dosage 320 g/ha) [%]	further results
CCOC(=O)CNC(=O)COc1nn(-c2ncccc2F)c(-c2ccc(OC)nc2)c1Br [Example I-48]	100	80	90	90	100	100	90	80	90	100	100	90	100	100	90	100	100	80	90	Post-emergence action against SETVI in % ([2]; dosage 80 g/ha): 80%; Pre-emergence action against POLCO in % ([3]; dosage 80 g/ha): 90%; Post-emergence action against ALOMY in % ([5]; 80 g/ha): 100%; Pre-emergence action against LOLRI in % ([7]; dosage 80 g/ha): 100%; Pre-emergence action against LOLRI in % ([7]; dosage 320 g/ha): 100%; Pre-emergence action against ABUTH [8]: 80%; Post-emergence action against VERPE in % ([9]; dosage 80 g/ha): 90%; Pre-emergence action against MATIN in % [10]: 100%; Post-emergence action against AMARE in % ([12]; 80 g/ha, visual rating about 3 weeks after treatment vs untreated controls (100% = plants have died, 0% = like control plants)): 80%; Post-emergence action against AMARE in % ([12]; 320 g/ha, visual rating about 3 weeks after treatment): 80%; Post-emergence action against LOLRI in % [14]: 80%; Post-emergence action against VIOTR in % ([15]; 80 g/ha): 80%; Pre-emergence action against ALOMY ([16]; 80 g/ha): 80%; Pre-emergence action against AMARE in % ([17]; 80 g/ha): 90%; Post-emergence action against ABUTH in % ([18]; 80 g/ha): 90%; Post-emergence action against ZEAMX in % [21]: 20%; Pre-emergence action against SETVI in % ([23]; dosage 80 g/ha): 100%; Pre-emergence action against SETVI in % ([23]; dosage 320 g/ha): 100%
COC(=O)COc1nn(-c2ncccc2C(F)(F)F)c(-c2cncc(F)c2)c1I [Example I-223]	100	80	80	80	80	80	80	80	80	100	90	80	90	90	80	80	80	80	90	Post-emergence action against PHBPU in % ([4]; dosage 80 g/ha): 80%; Pre-emergence action against DIGSA in % [24]: 80%; Pre-emergence action against ORYSA in % [25]: 10%; Pre-emergence action against ZEAMX in % [26]: 20%; Post-emergence action against DIGSA in % ([27]; 80 g/ha): 80%; Post-emergence action against DIGSA in % ([27]; 320 g/ha): 90%; Pre-emergence action against PHBPU in % [28]: 80%; Post-emergence action against ORYSA in % ([29]; 80 g/ha): 10%; Post-emergence action against ORYSA in % ([29]; 320 g/ha): 20%
